Assay results taken from patent US20260108546A1 (ELI LILLY AND COMPANY, priority 2024, published 2026).

Target: T1, hGIP-R (Homo sapiens, UniProt P48546)
T1 construct: expressed in transfected cells; host or cells: HEK-293 clonal cell lines
T1 sequence (P48546 22-466): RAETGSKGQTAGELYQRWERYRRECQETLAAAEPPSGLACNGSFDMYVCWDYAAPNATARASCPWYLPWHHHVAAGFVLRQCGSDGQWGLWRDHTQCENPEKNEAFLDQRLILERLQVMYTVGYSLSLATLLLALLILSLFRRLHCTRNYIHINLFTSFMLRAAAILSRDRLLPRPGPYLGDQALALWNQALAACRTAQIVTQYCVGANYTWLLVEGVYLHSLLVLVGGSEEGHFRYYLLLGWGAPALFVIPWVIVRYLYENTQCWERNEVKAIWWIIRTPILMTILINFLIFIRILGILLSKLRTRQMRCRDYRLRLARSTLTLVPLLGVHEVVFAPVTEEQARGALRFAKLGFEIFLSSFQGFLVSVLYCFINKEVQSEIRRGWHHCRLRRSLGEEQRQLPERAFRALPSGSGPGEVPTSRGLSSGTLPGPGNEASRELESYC
Assay: Functional hGIP-R Assay (cAMP formation, HTRF)
Assay type: cell-based
Conditions: for Emax: cAMP efficacy, percent of maximal response to GIP(1-42)OH, 37° C., 0.1% bovine casein, arithmetic mean ± SEM; for EC50: cAMP potency, HEK-293 cells expressing hGIP-R, incubated at 37° C. in the presence of 0.1% bovine casein, geometric mean, read-out: Human GIP-R EC50, nM (SEM, n)
Method in brief: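 Relative EC50 and Emax came from four-parameter logistic fits of cAMP as a percent of the human GIP (1-42) OH maximal response. The cAMP was measured by competitive HTRF after 30 min, 37 °C compound exposure of hGIP-R HEK-293 clones in IBMX (250 μM)-containing medium.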

Emax	EC50	Structure (SMILES)
72.8 ± 3.32%	57.7 nM	Cn1cc2cc(-c3ccc([C@H]4C[C@@]45CCN([C@H](Cc4cnn(C(F)F)c4)C(=O)NC(C)(C)Cn4nc(C(F)(F)F)cc4-c4ccc(C#N)nc4)C5=O)cc3)cnc2n1 [Example 143, (R)-N-(1-(5-(6-Cyanopyridin-3-yl)-3-(trifluoro-methyl)-1H-pyrazol-1-yl)-2-methylpropan-2-yl)-3-(1-(difluoro-methyl)-1H-pyrazol-4-yl)-2-((1R,3R)-1-(4-(2-methyl-2H-pyrazolo[3,4-b]pyridin-5-yl)phenyl)-4-oxo-5-azaspiro[2.4]heptan-5-yl)propanamide]
63.3 ± 2.24%	0.755 nM	Cc1cn2cc(-c3ccc([C@H]4C[C@@]45CCN([C@H](Cc4cnn(C(F)F)c4)C(=O)NC(C)(C)Cn4nc(C(F)(F)F)cc4-c4cc(F)c(=O)n(C)c4)C5=O)c(C)c3)cnc2n1 [Example 144, (R)-3-(1-(Difluoromethyl)-1H-pyrazol-4-yl)-N-(1-(5-(5-fluoro-1-methyl-6-oxo-1,6-dihydropyridin-3-yl)-3-(trifluoromethyl)-1H-pyrazol-1-yl)-2-methylpropan-2-yl)-2-((1R,3R)-1-(2-methyl-4-(2-methylimidazo[1,2-a]pyrimidin-6-yl)phenyl)-4-oxo-5-azaspiro[2.4]heptan-5-yl)propanamide]
96.6 ± 2.37%	0.727 nM	Cc1nc(-c2cnc3nc(C4CC4)cn3c2)ccc1[C@H]1C[C@@]12CCN([C@H](Cc1cnn(C(F)F)c1)C(=O)NC(C)(C)Cn1nc(C(F)(F)F)cc1-c1ccn(C3CC3)c(=O)c1)C2=O [Example 145, (R)—N-(1-(5-(1-Cyclopropyl-2-oxo-1,2-dihydropyridin-4-yl)-3-(trifluoromethyl)-1H-pyrazol-1-yl)-2-methylpropan-2-yl)-2-((1R,3R)-1-(6-(2-cyclopropylimidazo[1,2-a]pyrimidin-6-yl)-2-methylpyridin-3-yl)-4-oxo-5-azaspiro[2.4]heptan-5-yl)-3-(1-(difluoromethyl)-1H-pyrazol-4-yl)propanamide]
86.1 ± 9%	17.2 nM	Cc1ncc(-c2cc(C(F)(F)F)nn2CC(C)(C)NC(=O)[C@@H](Cc2cnn(C(F)F)c2)NC(=O)[C@H]2C[C@@H]2c2ccc(-c3cnc4nn(C)cc4c3)nc2C(F)(F)F)cn1 [Example 147, (1S,2S)-N—((R)-3-(1-(Difluoromethyl)-1H-pyrazol-4-yl)-1-((2-methyl-1-(5-(2-methylpyrimidin-5-yl)-3-(trifluoromethyl)-1H-pyrazol-1-yl)propan-2-yl)amino)-1-oxopropan-2-yl)-2-(6-(2-methyl-2H-pyrazolo[3,4-b]pyridin-5-yl)-2-(trifluoromethyl)pyridin-3-yl)cyclopropane-1-carboxamide]
74.4 ± 2.94%	1.13 nM	Cc1cn2cc(-c3ccc([C@H]4C[C@@]45CCN([C@H](Cc4cnn(C(F)F)c4)C(=O)NC(C)(C)Cn4nc(C(F)(F)F)cc4-c4ccc(=O)[nH]n4)C5=O)c(Cl)c3)cnc2n1 [Example 148, (R)-2-((1S,3R)-1-(2-Chloro-4-(2-methylimidazo[1,2-a]pyrimidin-6-yl)phenyl)-4-oxo-5-azaspiro[2.4]heptan-5-yl)-3-(1-(difluoromethyl)-1H-pyrazol-4-yl)-N-(2-methyl-1-(5-(6-oxo-1,6-dihydropyridazin-3-yl)-3-(trifluoromethyl)-1H-pyrazol-1-yl)propan-2-yl)propanamide]
73.2 ± 2.43%	5.57 nM	Cc1cn2cc(-c3ccc([C@H]4C[C@@]45CCN([C@H](Cc4cnn(C(F)F)c4)C(=O)NC(C)(C)Cn4nc(C(F)(F)F)cc4-c4ccc(=O)[nH]n4)C5=O)c(F)c3)cnc2n1 [Example 149, (R)-3-(1-(Difluoromethyl)-1H-pyrazol-4-yl)-2-((1S,3R)-1-(2-fluoro-4-(2-methylimidazo[1,2-a]pyrimidin-6-yl)phenyl)-4-oxo-5-azaspiro[2.4]heptan-5-yl)-N-(2-methyl-1-(5-(6-oxo-1,6-dihydropyridazin-3-yl)-3-(trifluoromethyl)-1H-pyrazol-1-yl)propan-2-yl)propanamide]
89.5 ± 6.21%	2.06 nM	Cc1cn2cc(-c3ccc([C@H]4C[C@@]45CCN([C@H](Cc4cnn(C(F)F)c4)C(=O)NC(C)(C)Cn4nc(C(F)(F)F)cc4-c4ccc(=O)n(COP(=O)(O)O)n4)C5=O)c(Cl)c3)cnc2n1 [Example 150, (3-(1-(2-((R)-2-((1S,3R)-1-(2-Chloro-4-(2-methylimidazo[1,2-a]pyrimidin-6-yl)phenyl)-4-oxo-5-azaspiro[2.4]heptan-5-yl)-3-(1-(difluoromethyl)-1H-pyrazol-4-yl)propanamido)-2-methylpropyl)-3-(trifluoromethyl)-1H-pyrazol-5-yl)-6-oxopyridazin-1 (6H)-yl)methyl dihydrogen phosphate]
106 ± 2.17%	16.9 nM	Cc1cn2cc(-c3ccc([C@H]4C[C@@]45CCN([C@H](Cc4cnn(C(F)F)c4)C(=O)NC(C)(C)Cn4nc(C(F)(F)F)cc4-c4ccc(=O)n(COP(=O)(O)O)n4)C5=O)c(F)c3)cnc2n1 [Example 151, (3-(1-(2-((R)-3-(1-(Difluoromethyl)-1H-pyrazol-4-yl)-2-((1S,3R)-1-(2-fluoro-4-(2-methylimidazo[1,2-a]pyrimidin-6-yl)phenyl)-4-oxo-5-azaspiro[2.4]heptan-5-yl)propanamido)-2-methylpropyl)-3-(trifluoromethyl)-1H-pyrazol-5-yl)-6-oxopyridazin-1 (6H)-yl)methyl dihydrogen phosphate]
87.2 ± 1.03%	1.73 nM	[2H]C([2H])([2H])n1cc(C[C@H](C(=O)NC(C)(C)Cn2nc(C(F)(F)F)cc2-c2cnc(C)nc2)N2CC[C@@]3(C[C@@H]3c3ccc(-c4cnc5nc(C)cn5c4)cc3Cl)C2=O)cn1 [Example 152, (R)-2-((1S,3R)-1-(2-Chloro-4-(2-methylimidazo[1,2-a]pyrimidin-6-yl)phenyl)-4-oxo-5-azaspiro[2.4]heptan-5-yl)-N-(2-methyl-1-(5-(2-methylpyrimidin-5-yl)-3-(trifluoromethyl)-1H-pyrazol-1-yl)propan-2-yl)-3-(1-(methyl-d3)-1H-pyrazol-4-yl)propanamide]
74.2 ± 2.83%	5.24 nM	Cn1cc(-c2ccc([C@H]3C[C@@]34CCN([C@H](Cc3cnn(C(F)F)c3)C(=O)NC(C)(C)Cn3nc(C(F)(F)F)cc3-c3cn[nH]n3)C4=O)c(Cl)c2)cnc1=O [Example 154, (R)—N-(1-(5-(2H-1,2,3-Triazol-4-yl)-3-(trifluoromethyl)-1H-pyrazol-1-yl)-2-methylpropan-2-yl)-2-((1S,3R)-1-(2-chloro-4-(1-methyl-2-oxo-1,2-dihydropyrimidin-5-yl)phenyl)-4-oxo-5-azaspiro[2.4]heptan-5-yl)-3-(1-(difluoromethyl)-1H-pyrazol-4-yl)propanamide]
78.1 ± 4.92%	118 nM	Cn1cc(-c2cc(C(F)(F)F)nn2CC(C)(C)NC(=O)[C@@H](Cc2cnn(C(F)F)c2)NC(=O)[C@H]2C[C@@H]2c2nc3c(Cl)nn(C)c3cc2C#N)cc(F)c1=O [Example 155, (1S,2S)-2-(3-Chloro-6-cyano-1-methyl-1H-pyrazolo[4,3-b]pyridin-5-yl)-N—((R)-3-(1-(difluoromethyl)-1H-pyrazol-4-yl)-1-((1-(5-(5-fluoro-1-methyl-6-oxo-1,6-dihydropyridin-3-yl)-3-(trifluoromethyl)-1H-pyrazol-1-yl)-2-methylpropan-2-yl)amino)-1-oxopropan-2-yl)cyclopropane-1-carboxamide]
16.5 ± 0.234%	108 nM	Cn1cc(-c2cc(C(F)(F)F)nn2CC(C)(C)NC(=O)[C@@H](Cc2cnn(C(F)F)c2)NC(=O)[C@H]2C[C@@H]2c2nc3cnn(C)c3cc2F)cc(F)c1=O [Example 157, (1S,2S)-N-((R)-3-(1-(Difluoromethyl)-1H-pyrazol-4-yl)-1-((1-(5-(5-fluoro-1-methyl-6-oxo-1,6-dihydropyridin-3-yl)-3-(trifluoromethyl)-1H-pyrazol-1-yl)-2-methylpropan-2-yl)amino)-1-oxopropan-2-yl)-2-(6-fluoro-1-methyl-1H-pyrazolo[4,3-b]pyridin-5-yl)cyclopropane-1-carboxamide]
102 ± 1.41%	1.23 nM	Cc1nc(-c2cnc3nc(C4CC4)cn3c2)ccc1[C@H]1C[C@@]12CCN([C@H](Cc1cnn(C(F)F)c1)C(=O)NC(C)(C)Cn1nc(C(F)(F)F)cc1-c1cnc(C(C)(C)O)nc1)C2=O [Example 158, (R)-2-((1R,3R)-1-(6-(2-cyclopropylimidazo[1,2-a]pyrimidin-6-yl)-2-methylpyridin-3-yl)-4-oxo-5-azaspiro[2.4]heptan-5-yl)-3-(1-(difluoromethyl)-1H-pyrazol-4-yl)-N-(1-(5-(2-(2-hydroxypropan-2-yl)pyrimidin-5-yl)-3-(trifluoromethyl)-1H-pyrazol-1-yl)-2-methylpropan-2-yl)propanamide]
